Source: patent US20040023972A1, “Use of substituted imidazo[1,2-a]-pyridin-, -pyrimidin-and-pyrazin-3-yl-amine derivatives in the preparation of medicaments for inhibiting NOS” (Gruenenthal GmbH, priority 2000, published 2004)

Biological target: T1, NO synthase (Rattus norvegicus, UniProt P29476)
T1 construct: the supernatant was then removed by decantation and frozen in portions at −80° C; from tissue; host or cells: rat cerebellum, 20,000 g supernatant of homogenate
Test: HTS-NOS assay (NOS assay): conversion of radioactive arginine, cation-exchanger filter plate
Type: biochemical
Details: for inhibition at 10 µM: read-out: HTS-NOS assay: % inhibition (10 μM); for NOS assay % inhibition: Table 5, concentration not given
Outline: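 Percent inhibition was derived by comparing remaining radioactive arginine with compound-free controls. Arginine retained on phosphate cation-exchanger filters was counted after citrulline washout, following a 5-60 min room-temperature (25 °C) reaction of labelled arginine, NADPH-containing medium and rat cerebellar homogenate supernatant.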

SMILES	inhibition at 10 µM	other results
CC(=O)N(c1c(-c2ccc(C(=O)O)o2)nc2nc(C)ccn12)C(C)(C)CC(C)(C)C [Example 248, 5-{3-[acetyl-(1,1,3,3-tetramethyl-butyl)-amino]-7-methyl-imidazo[1,2-a]-pyrimidin-2-yl}-furan-2-carboxylic acid]	52%	–
[C-]#[N+]CCCCCCNc1c(-c2ccccc2Br)nc2cc(C)cc(C)n12 [Example 92, {6-[2-(2-Bromophenyl)-5,7-dimethyl-imidazo[1,2-a]pyridin-3-ylamino]-hexyl}-methylidyne-ammonium]	–	HTS-NOS assay: % inhibition (10 μM): 60%
CC(=O)N(c1c(-c2cccc(O)c2)nc2cc(C)cc(C)n12)C(C)(C)CC(C)(C)C [Example 181, N-[2-(3-hydroxy-phenyl)-5,7-dimethyl-imidazo[1,2-a]pyridin-3-yl]-N-(1,1,3,3-tetramethyl-butyl)-acetamide]	60%	–
CCc1ccn2c(NCc3ccccc3Cl)c(-c3ccco3)nc2c1 [Example 316, (2-Chloro-benzyl)-(7-ethyl-2-furan-2-yl-imidazo[1,2-a]pyridin-3-yl)-amine]	52%	–
CCCCN(C(C)=O)c1c(-c2ccccc2C)nc2ncccn12 [Example 206, N-butyl-N-(2-o-tolyl-imidazo[1,2-a]pyrimidin-3-yl)acetamide]	54%	–
Cc1cc(C)n2c(Nc3c(C)cccc3C)c(-c3cc4ccccc4o3)nc2c1 [Example 57, (2-Benzofuran-2-yl-5,7-dimethyl-imidazo[1,2-a]pyridin-3-yl)-(2,6-dimethyl-phenyl)-amine]	57%	–
Cc1ccn2c(NC(C)(C)C)c(-c3ccc(C(=O)O)s3)nc2c1 [Example 110, 5-(3-Tert-butylamino-7-methyl-imidazo[1,2-a]pyridin-2-yl)-thiophene-2-carboxylic acid]	61%	–
Cc1ccn2c(NC(C)(C)CC(C)(C)C)c(-c3ccc(C4OCCO4)o3)nc2c1 [Example 41, [2-(5-[1,3]Dioxolan-2-yl-furan-2-yl)-7-methyl-imidazo[1,2-a]pyridin-3-yl]-(1,1,3,3-tetramethyl-butyl)-amine]	57%	–
CC(=O)OCc1ccc(-c2nc3cc(C)cc(C)n3c2N(C(C)=O)C2CCCCC2)o1 [Example 158, acetic acid 5-[3-(acetyl-cyclohexyl-amino)-5,7-dimethyl-imidazo[1,2-a]pyridin-2-yl]-furan-2-yl methyl ester]	–	HTS-NOS assay: % inhibition (10 μM): 54%
[C-]#[N+]CCCCCCNc1c(-c2ccc(C)cc2)nc2cc(C)ccn12 [Example 50, Methylidyne-[6-(7-methyl-2-p-tolyl-imidazo[1,2-a]pyridin-3-ylamino)-hexyl]-ammonium]	–	HTS-NOS assay: % inhibition (10 μM): 78%
Cc1ccn2c(NCc3ccccc3)c(-c3ccsc3)nc2c1.Cl [Example 309, Benzyl-(7-methyl-2-thiophen-3-yl-imidazo-[1,2-a]pyridin-3-yl)-amine hydrochloride]	–	NOS assay % inhibition: 45%
CC(=O)N(c1c(-c2c(F)cccc2Cl)nc2ccccn12)C(C)(C)C [Example 258, N-tert-butyl-N-[2-(2-chloro-6-fluoro-phenyl)-imidazo[1,2-a]pyridin-3-yl]-acetamide]	60%	–
Cc1cc(C)n2c(NC3CCCCC3)c(-c3ccoc3)nc2c1.Cl [Example 302, Cyclohexyl-(2-furan-3-yl-5,7-dimethyl-imidazo-[1,2-a]pyridin-3-yl)-amine hydrochloride]	–	NOS assay % inhibition (hydrochloride): 54%
CC(=O)N(c1c(-c2ccc(C)s2)nc2ncccn12)C(C)(C)C [Example 266, N-tert-butyl-N-[2-(5-methyl-thiophen-2-yl)-imidazo[1,2-a]pyrimidin-3-yl]-acetamide]	53%	–
Cc1ccn2c(NC(C)(C)CC(C)(C)C)c(C)nc2c1 [Example 40, (2,7-Dimethyl-imidazo[1,2-a]pyridin-3-yl)-(1,1,3,3-tetramethyl-butyl)-amine]	61%	–
CCc1ccn2c(NCc3ccccc3Cl)c(-c3ccc([N+](=O)[O-])o3)nc2c1 [Example 314, (2-Chlorobenzyl)-[7-ethyl-2-(5-nitro-furan-2-yl)-imidazo[1,2-a]pyridin-3-yl]-amine]	47%	–
CC(=O)N(c1c(-c2cccc(Cl)c2Cl)nc2ccccn12)C(C)(C)C [Example 227, N-tert-butyl-N-[2-(2,3-dichloro-phenyl)-imidazo[1,2-a]pyridin-3-yl]-acetamide]	54%	–
Cc1cccn2c(NC3CCCCC3)c(-c3ccco3)nc12 [Example 121, Cyclohexyl-(2-furan-2-yl-8-methyl-imidazo[1,2-a]pyridin-3-yl)-amine]	53%	–
Cc1cc(C)n2c(NC3CCCCC3)c(-c3ccc(C(=O)O)o3)nc2c1 [Example 87, 5-(3-Cyclohexylamino-5,7-dimethyl-imidazo[1,2-a]pyridin-2-yl)-furan-2-carboxylic acid]	54%	–
[C-]#[N+]CCCCCCN(C(C)=O)c1c(-c2cccnc2)nc2cc(C)cc(C)n12 [Example 232, {6-[acetyl-(5,7-dimethyl-2-pyridin-3-yl-imidazo[1,2-a]pyridin-3-yl)-amino]-hexyl}-methylidyne-ammonium]	–	HTS-NOS assay: % inhibition (10 μM): 59%
C#[N+]CCCCCCNc1c(-c2cccnc2)nc2cc(C)ccn12 [Example 19, Methylidyne-[6-(7-methyl-2-pyridin-3-yl-imidazo[1,2-a]pyridin-3-ylamino)-hexyl]-ammonium]	–	HTS-NOS assay: % inhibition (10 μM): 53%
Cc1ccn2c(NC(C)(C)CC(C)(C)C)c(-c3cccc(O)c3)nc2c1 [Example 83, 3-[7-Methyl-3-(1,1,3,3-tetramethyl-butylamino)-imidazo[1,2-a]pyridin-2-yl]-phenol]	60%	–
CC(=O)N(c1c(-c2ccncc2)nc2cc(C)ccn12)C1CCCCC1 [Example 163, N-cyclohexyl-N-(7-methyl-2-pyridin-4-yl-imidazo[1,2-a]pyridin-3-yl)-acetamide]	63%	–
CC(=O)N(c1c(-c2cccs2)nc2cc(C)ccn12)C1CCCCC1 [Example 151, N-cyclohexyl-N-(7-methyl-2-thiophen-2-yl-imidazo[1,2-a]pyridin-3-yl)-acetamide]	65%	–
CC(=O)N(c1c(-c2cc3ccccc3o2)nc2c(C)cccn12)C(C)(C)CC(C)(C)C [Example 286, N-(2-benzofuran-2-yl-8-methyl-imidazo[1,2-a]pyridin-3-yl)-N-(1,1,3,3-tetramethyl-butyl)-acetamide]	59%	–
CC(=O)N(c1c(-c2ccc(Cl)cc2Cl)nc2cccc(C)n12)C1CCCCC1 [Example 274, N-cyclohexyl-N-[2-(2,4-dichloro-phenyl)-5-methyl-imidazo[1,2-a]pyridin-3-yl]-acetamide]	64%	–
CC(=O)N(c1c(-c2ccc(C(=O)O)o2)nc2cc(C)ccn12)C(C)(C)C [Example 201, 5-[3-(acetyl-tert-butyl-amino)-7-methyl-imidazo[1,2-a]pyridin-2-yl]-furan-2-carboxylic acid]	54%	–
CC(=O)N(c1c(C)cccc1C)c1c(C(C)(C)C)nc2cc(C)ccn12 [Example 212, N-(2-tert-butyl-7-methyl-imidazo[1,2-a]pyridin-3-yl)-N-(2,6-dimethyl-phenyl)-acetamide]	68%	–
Cc1ccn2c(NC3CCCCC3)c(-c3ccccc3F)nc2c1 [Example 21, Cyclohexyl-(2-(2-fluoro-phenyl)-7-methyl-imidazo[1,2-a]pyridin-3-yl]-amine]	53%	–
